Our source for the EC50 values is BindingDB's records for doi:10.7270/Q2736PBV (Broad Institute, 2009).

Where only a bound is given, the exact number is not on record here.

The assay concerns the target T1, Streptokinase A (Streptococcus pyogenes serotype M1, UniProt P10520).
T1 sequence (P10520 whole entry): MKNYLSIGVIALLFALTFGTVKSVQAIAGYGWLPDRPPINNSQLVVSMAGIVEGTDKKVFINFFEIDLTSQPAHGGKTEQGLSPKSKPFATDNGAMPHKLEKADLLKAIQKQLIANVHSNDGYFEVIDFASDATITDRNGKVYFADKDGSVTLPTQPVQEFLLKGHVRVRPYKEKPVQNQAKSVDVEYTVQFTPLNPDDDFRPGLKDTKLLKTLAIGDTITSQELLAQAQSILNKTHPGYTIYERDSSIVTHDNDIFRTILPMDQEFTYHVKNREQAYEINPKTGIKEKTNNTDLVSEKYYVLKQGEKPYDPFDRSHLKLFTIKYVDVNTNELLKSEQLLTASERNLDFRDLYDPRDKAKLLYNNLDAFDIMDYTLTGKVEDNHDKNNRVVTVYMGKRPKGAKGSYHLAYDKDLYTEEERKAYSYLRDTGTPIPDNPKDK
Put plainly: S. pyogenes streptokinase expression inhibitors, potency, dose response, plasminogen activation absorbance, OD405 (AID 1914).
As to `CCc1ccc(C2C(C#N)C(=N)C(C#N)(C#N)C3=CCC(C(C)(C)C)CC32)cc1` (configuration not stated) [SMR000115124], the EC50 was 5.84 µM.
The value for `Oc1nc(Nc2ccccn2)sc1Cc1ccc(Cl)cc1` [SMR000288952] was greater than 150 µM; that for `O=C(O)c1ccc(N=NCc2ccc(OC(=O)c3ccccc3Cl)cc2)cc1` [MLS000589715] was greater than 150 µM; that for `Cc1sc2ncnc(N=NCc3ccccc3O)c2c1C` was 8.21 µM.
On to `O=c1ccc2[n+]([O-])c3ccccc3n(O)c-2c1` [10-hydroxy-5-oxidophenazin-5-ium-2-one], for which the EC50 is greater than 150 µM.
For `Oc1ccccc1CN=Nc1nc(O)c(Cc2ccc(F)cc2)s1` [5-[(4-fluorophenyl)methyl]-2-[2-[(E)-(6-oxidanylidenecyclohexa-2,4-dien-1-ylidene)methyl]hydrazinyl]-1,3-thiazol-4-one] the value was greater than 150 µM.
The value for `COc1cccc(C(=O)Oc2ccc(CN=Nc3ccc(C(=O)O)cc3)cc2OC)c1` [SMR000502791] was greater than 150 µM; that for `Cc1cc(C)n(C(=O)C(C#N)N=Nc2cc(Cl)cc(Cl)c2)n1` (configuration not stated) [SMR000335596] was greater than 150 µM.
The value for `Cc1[nH]c2ccccc2c1CN=Nc1nc2ccccc2[nH]1` [N-(1H-Benzoimidazol-2-yl)-N'-[1-(2-methyl-1H-indol-3-yl)-meth-(E)-ylidene]-hydrazine] was greater than 150 µM; that for `C=c1c(C#N)c(N)[nH]c2c(C#N)c(C)c(=Cc3ccc(C)cc3)c1=2` was 12.3 µM; that for `Cc1cc(C)nc(N=NCc2cc(Br)ccc2O)n1` was greater than 150 µM.
For the compound `Cc1cc(=O)n(-c2nc(-c3ccccc3)cs2)[nH]1` [SMR000175888], the EC50 is 10 µM.
For `CCOc1ccc2[nH]c(=O)c(CN(CC3COCCO3)C(=O)C3CC3)cc2c1` (configuration not stated) [MLS000031787] the value was greater than 150 µM; for `COc1ccc(CN=Nc2cc(C)nc(-n3nc(C)cc3C)n2)c(OC)c1` [MLS000589396], greater than 150 µM.
The value for `CC(C)(C)C1CCC2=C(C#N)C(=N)C(C#N)(C#N)C(c3cccs3)C2C1` (configuration not stated) [MLS000552642] was 25.7 µM; that for `COc1ccccc1CN=Nc1cc(C)nc(-n2nc(C)cc2C)n1` [SMR000212744] was greater than 150 µM.
Compound `Cc1[nH]n(-c2nc3ccccc3[nH]2)c(=O)c1Cc1ccccc1` [MLS000762809] gave an EC50 greater than 150 µM.
For `CCCOc1ccc(C2C(C(=O)c3cc4ccccc4o3)C(=O)C(=O)N2c2cc(C)on2)cc1OC` (configuration not stated) [MLS001142810], the EC50 is greater than 150 µM.
`O=C(Oc1cccc(CN=Nc2nc(Nc3ccccc3)nc(N3CCOCC3)n2)c1)c1ccco1` registered an EC50 greater than 150 µM.
The value for `Cc1ccc2c(c1)=C(NNC(=O)c1ccc(NS(=O)(=O)c3cccs3)cc1)C(=O)N=2` [N-[4-[[(5-methyl-2-oxoindol-3-yl)amino]carbamoyl]phenyl]thiophene-2-sulfonamide] was greater than 150 µM.
The value for `C=CCN1C(=O)NC(=O)C(=C(C)Nc2ccc(N(CC)CC)cc2)C1=O` [SMR000043704] was greater than 150 µM; that for `C=c1[nH]n(-c2ccccc2)c(=O)c1=C(C=Cc1cccc(OC)c1OC)c1ccc(Br)cc1` [4-[1-(4-Bromo-phenyl)-3-(2,3-dimethoxy-phenyl)-allylidene]-5-methyl-2-phenyl-2,4-dihydro-pyrazol-3-one] was greater than 150 µM; that for `C=CCN1C(=O)NC(=O)C(=C(CC)Nc2ccc(N(C)C)cc2)C1=O` [(5E)-5-[1-[4-(dimethylamino)anilino]propylidene]-1-prop-2-enyl-1,3-diazinane-2,4,6-trione] was greater than 150 µM.
The value for `CC(C)c1oc(NC(=O)Nc2ccc(Cl)c(Cl)c2)nc1O` [MLS000053797] was greater than 150 µM.
The compound `O=C1Nc2ccccc2SC1C=Nc1cccc(Cl)c1` (configuration not stated) returned an EC50 greater than 150 µM.
For `COc1cc(CN=Nc2nc(Nc3ccccc3)nc(-n3nc(C)cc3C)n2)cc(OC)c1OC` [6-(3,5-dimethylpyrazol-1-yl)-N4-phenyl-N2-[(3,4,5-trimethoxyphenyl)methylideneamino]-1,3,5-triazine-2,4-diamine] the value was greater than 150 µM; for `CCCCCCCCOC(=O)C1C(C)=Nc2nnnn2C1c1cccs1` (configuration not stated) [MLS000519969], 50 µM; for `COc1ccc(CC(=O)N/N=C/C2C=C([N+](=O)[O-])C=C(Br)C2=O)cc1` (configuration not stated), greater than 150 µM.
The value for `COC(=O)/N=N/C=C1\C=[N+]([O-])c2ccccc2N1O` [MLS001333201] was greater than 150 µM; that for `Cc1nc(N=NCc2ccc3c(c2)OCO3)sc1C` [(4,5-dimethylthiazol-2-yl)-(piperonylideneamino)amine] was greater than 150 µM.
For `N#Cc1c(-c2c(Cl)cccc2Cl)noc1CC=Nc1ccc(C(=O)O)cc1` [SMR000337673] the value was greater than 150 µM.
Compound `CN(C)c1ccc(CN=Nc2nc3ccccc3o2)cc1` registered a concentration giving a half-maximal response (EC50) greater than 150 µM.
The value for `CC(N=Nc1nc(N2CCCCCC2)nc(N2CCCCCC2)n1)c1ccccc1` (configuration not stated) [(1E)-1-phenylethanone (4,6-diazepan-1-yl-1,3,5-triazin-2-yl)hydrazone] was 5.5 µM; that for `O=C1C(=NNC(=S)Nc2ccccc2F)c2ccccc2N1Cc1ccccc1` [SMR000314861] was greater than 150 µM.
The value for `CCOc1cc(CN=Nc2cc(C)nc(-n3nc(C)cc3C)n2)ccc1O` [4-{[2-(3,5-Dimethyl-pyrazol-1-yl)-6-methyl-pyrimidin-4-yl]-hydrazonomethyl}-2-ethoxy-phenol] was greater than 150 µM; that for `CC(N=Nc1nc2ccc(Cl)cc2o1)c1ccccc1` (configuration not stated) [6-chloranyl-N-(1-phenylethylideneamino)-1,3-benzoxazol-2-amine] was greater than 150 µM; that for `CCCCN1C(=O)NC(=O)C(=C(C)Nc2ccc(OCC)cc2)C1=O` [SMR000058103] was greater than 150 µM.
Take `CCCOc1ccc(C(=O)C2C(=O)C(=O)N(c3ccccn3)C2c2ccc(OC)cc2)cc1C` (configuration not stated) [(4Z)-4-[hydroxy-(3-methyl-4-propoxyphenyl)methylidene]-5-(4-methoxyphenyl)-1-(2-pyridinyl)pyrrolidine-2,3-dione]: it took 103 µM to reach a half-maximal effect (EC50).
In turn, `CCOc1ccc(CN=Nc2cc(N3CCOCC3)nc(C)n2)c(O)c1` [(6E)-3-ethoxy-6-[[2-(2-methyl-6-morpholin-4-yl-pyrimidin-4-yl)hydrazinyl]methylidene]cyclohexa-2,4-dien-1-one] gave a half-maximal effective concentration (EC50) greater than 150 µM.
The value for `CC(C)c1ccc2c(c1)=C(NNC(=O)c1cccc(S(=O)(=O)N3CCCCC3)c1)C(=O)N=2` [SMR000243307] was greater than 150 µM.
The value for `C=c1[nH][nH]c(=O)c1=Cc1cn(-c2ccccc2)nc1-c1ccc(Cl)cc1` [SMR000193592] was 4.83 µM; that for `O=NC(c1ccc(Cl)cc1Cl)c1ncc(C(F)(F)F)cc1Cl` (configuration not stated) [MLS000540015] was 35.2 µM; that for `CC(=NNC(=N)Sc1cc(O)n(-c2ccc(Cl)c(Cl)c2)c1O)c1cccs1` [1-(3,4-dichlorophenyl)-2,5-dioxo-3-pyrrolidinyl 2-[1-(2-thienyl)ethylidene]hydrazinecarbimidothioate] was 7.44 µM.
`Cc1cc2nc(-n3c(O)c[nH]c3=S)sc2cc1C` [SMR000272190] displayed a concentration giving a half-maximal response (EC50) greater than 150 µM.
For `Oc1ccc(CN=Nc2nc(-c3ccc(Cl)cc3)cc(C(F)(F)F)n2)cc1` [SMR000212812] the value was 16.3 µM.
Turning to `c1csc(CN=Nc2ncnc3sc4c(c23)CCC4)c1` [MLS000571423], the EC50 is greater than 150 µM.
The value for `CCCCCCC(N=O)c1ccccn1` (configuration not stated) was greater than 150 µM.

As usually defined, the EC50 is the concentration at which the effect is half-maximal. Low values mean a more potent agent, high ones a less potent agent.
